Results as given in the supplement of paper PMC10307832.

Columns and labels:
Test in all cases: relative viability (nuclei count vs DMSO), 5 days (fraction); higher = more cells survive
AZ505 + Alpelisib = compound: C1CCC(CC1)N(CCNCCC2=C3C(=C(C=C2)O)NC(=O)CO3)C(=O)CCNCCC4=CC(=C(C=C4)Cl)Cl [AZ505] + Cc1nc(NC(=O)N2CCC[C@H]2C(N)=O)sc1-c1ccnc(C(C)(C)C(F)(F)F)c1 [Alpelisib] (partner 2 µM)
How it was run: (§1)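 For relative viability, nuclei counts in treated wells were divided by those in vehicle wells. Lung cancer cell lines had been pin-tool dosed in 1536-well plates the day after seeding and cultured for 5 days, then fixed and stained in one step (final 0.05% Triton X-100, 1% formaldehyde, 1 ug/ml Hoechst) and imaged at 4×. Doses were one drug alone or a fixed anchor-drug dose plus five library-drug doses (not always all listed) in √10 steps, and values are duplicate-plate medians.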

Dactolisib + Palbociclib = compound: Cn1c(=O)n(-c2ccc(C(C)(C)C#N)cc2)c2c3cc(-c4cnc5ccccc5c4)ccc3ncc21 [Dactolisib] + CC(=O)c1c(C)c2cnc(Nc3ccc(N4CCNCC4)cn3)nc2n(C2CCCC2)c1=O [Palbociclib] (partner 0.5 µM)
How it was run: as §1

Dactolisib + Navitoclax = compound: Cn1c(=O)n(-c2ccc(C(C)(C)C#N)cc2)c2c3cc(-c4cnc5ccccc5c4)ccc3ncc21 [Dactolisib] + CC1(C)CCC(c2ccc(Cl)cc2)=C(CN2CCN(c3ccc(C(=O)NS(=O)(=O)c4ccc(N[C@H](CCN5CCOCC5)CSc5ccccc5)c(S(=O)(=O)C(F)(F)F)c4)cc3)CC2)C1 [Navitoclax] (partner 0.5 µM)
How it was run: as §1

Dactolisib + Linsitinib = compound: Cn1c(=O)n(-c2ccc(C(C)(C)C#N)cc2)c2c3cc(-c4cnc5ccccc5c4)ccc3ncc21 [Dactolisib] + C[C@]1(O)C[C@@H](c2nc(-c3ccc4ccc(-c5ccccc5)nc4c3)c3c(N)nccn32)C1 [Linsitinib] (partner 1 µM)
How it was run: as §1

UMC-11 was tested, and the relative viability (AZ505 + Alpelisib; first compound 0.08 µM) was 0.936, the relative viability (AZ505 + Alpelisib; first compound 0.253 µM) was 1.13 and the relative viability (AZ505 + Alpelisib; first compound 0.8 µM) was 0.899. The relative viability (AZ505 + Alpelisib; first compound 2.53 µM) was 0.827, the relative viability (AZ505 + Alpelisib; first compound 8 µM) was 1.04 and the relative viability (Dactolisib + Palbociclib; first compound 0.002 µM) was 0.331. It also gave a relative viability (Dactolisib + Palbociclib; first compound 0.006325 µM) of 0.311, a relative viability (Dactolisib + Palbociclib; first compound 0.02 µM) of 0.344 and a relative viability (Dactolisib + Palbociclib; first compound 0.06325 µM) of 0.318. The relative viability (Dactolisib + Palbociclib; first compound 0.2 µM) was 0.305, the relative viability (Dactolisib + Navitoclax; first compound 0.002 µM) was 0.339 and the relative viability (Dactolisib + Navitoclax; first compound 0.006325 µM) was 0.286. It also gave a relative viability (Dactolisib + Navitoclax; first compound 0.02 µM) of 0.243, a relative viability (Dactolisib + Navitoclax; first compound 0.06325 µM) of 0.131 and a relative viability (Dactolisib + Navitoclax; first compound 0.2 µM) of 0.124. It also gave a relative viability (Dactolisib + Linsitinib; first compound 0.002 µM) of 1.02, a relative viability (Dactolisib + Linsitinib; first compound 0.006325 µM) of 0.987 and a relative viability (Dactolisib + Linsitinib; first compound 0.02 µM) of 0.671. For the same cell line, the relative viability (Dactolisib + Linsitinib; first compound 0.06325 µM) was 0.286 and the relative viability (Dactolisib + Linsitinib; first compound 0.2 µM) was 0.262.
